Results: patent publication US9738634B2, “Heterocyclic amide compound and herbicide” (SYNGENTA PARTICIPATIONS AG, priority 2013, dated 2017)

Assays:
Assay type in all cases: in vivo
Details in all cases: treatment dosage 320 g/ha
[1] = tested on: black-grass; test: Test Example 4: weedkilling efficacy by foliar treatment; H: black-grass
How it was run: (§1)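 Seeds are spot-sown into sterilized diluvial soil and covered with about 1.5 cm of soil. After 14 days' greenhouse growth at 25 to 30° C, plants are sprayed on stems and leaves with diluted emulsion at the stated g/ha rate, then scored at 3 weeks.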

[2] = tested on: oval-leafed pondweed; test: Test Example 1: weedkilling efficacy, preemergent weed treatment in the submerged state; C: oval-leafed pondweed
How it was run: (§2)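 Pots of alluvial soil were flooded to a 4 cm depth. Mixed weed seeds were sown and 2.5 leaf-stage rice seedlings transplanted. On sowing day, water-diluted emulsion was applied to the water surface (dose in g/ha). After 3 weeks at 25–30 °C, effects were rated.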

[3] = tested on: chickweed; test: Test Example 4: weedkilling efficacy by foliar treatment; N: chickweed
How it was run: as §1

[4] = tested on: corn; test: Test Example 3: soil treatment, effect on crop; c: corn
How it was run: (§3)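 Crop and weed responses were judged three weeks after a uniform surface spray of the water-diluted emulsion at the given g/ha rate. Seeds sat beneath about 1.5 cm of sterilized diluvial soil, and boxes stood in a greenhouse at 25 to 30° C.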

[5] = tested on: bulrush; test: Test Example 1: weedkilling efficacy, preemergent weed treatment in the submerged state; B: bulrush
How it was run: as §2

[6] = tested on: beet; test: Test Example 4: foliar treatment, effect on crop; f: beet
How it was run: as §1

[7] = tested on: barnyard grass; test: Test Example 3: weedkilling efficacy through soil treatment; F: barnyard grass
How it was run: as §3

[8] = tested on: rapeseed; test: Test Example 3: soil treatment, effect on crop; g: rapeseed
How it was run: as §3

[9] = tested on: barnyard grass; test: Test Example 4: weedkilling efficacy by foliar treatment; F: barnyard grass
How it was run: as §1

[10] = tested on: corn; test: Test Example 4: foliar treatment, effect on crop; c: corn
How it was run: as §1

[11] = tested on: catchweed; test: Test Example 4: weedkilling efficacy by foliar treatment; O: catchweed
How it was run: as §1

[12] = tested on: bulrush; test: Test Example 2: weedkilling efficacy, growth period weed treatment in the submerged state; B: bulrush
How it was run: (§4)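 Weeds treated at the 1-2 leaf stage by application of diluted emulsion onto floodwater (4 cm depth, alluvial soil) at specified g/ha. Grown in greenhouse at 25 to 30° C; herbicidal effect rated three weeks after treatment.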

[13] = tested on: transplanted rice; test: Test Example 1: preemergent weed treatment in the submerged state, effect on crop; a: transplanted rice
How it was run: as §2

[14] = tested on: barnyard grass; test: Test Example 2: weedkilling efficacy, growth period weed treatment in the submerged state; A: barnyard grass
How it was run: as §4

[15] = tested on: Italian ryegrass; test: Test Example 3: weedkilling efficacy through soil treatment; I: Italian ryegrass
How it was run: as §3

[16] = tested on: wild oat; test: Test Example 3: weedkilling efficacy through soil treatment; G: wild oat
How it was run: as §3

[17] = tested on: birds-eye speedwell; test: Test Example 3: weedkilling efficacy through soil treatment; p: birds-eye speedwell
How it was run: as §3

[18] = tested on: crabgrass; test: Test Example 3: weedkilling efficacy through soil treatment; D: crabgrass
How it was run: as §3

[19] = tested on: soybean; test: Test Example 4: foliar treatment, effect on crop; d: soybean
How it was run: as §1

[20] = tested on: redroot pigweed; test: Test Example 3: weedkilling efficacy through soil treatment; L: redroot pigweed
How it was run: as §3

[21] = tested on: common wind-grass; test: Test Example 3: weedkilling efficacy through soil treatment; J: common wind-grass
How it was run: as §3

[22] = tested on: catchweed; test: Test Example 3: weedkilling efficacy through soil treatment; O: catchweed
How it was run: as §3

[23] = tested on: fig-leafed goosefoot; test: Test Example 3: weedkilling efficacy through soil treatment; M: fig-leafed goosefoot
How it was run: as §3

[24] = tested on: birds-eye speedwell; test: Test Example 4: weedkilling efficacy by foliar treatment; p: birds-eye speedwell
How it was run: as §1

[25] = tested on: green foxtail; test: Test Example 4: weedkilling efficacy by foliar treatment; E: green foxtail
How it was run: as §1

[26] = tested on: Indian mallow; test: Test Example 4: weedkilling efficacy by foliar treatment; K: Indian mallow
How it was run: as §1

[27] = tested on: common wind-grass; test: Test Example 4: weedkilling efficacy by foliar treatment; J: common wind-grass
How it was run: as §1

[28] = tested on: directly sown rice; test: Test Example 4: foliar treatment, effect on crop; b: directly sown rice
How it was run: as §1

[29] = tested on: black-grass; test: Test Example 3: weedkilling efficacy through soil treatment; H: black-grass
How it was run: as §3

[30] = tested on: fig-leafed goosefoot; test: Test Example 4: weedkilling efficacy by foliar treatment; M: fig-leafed goosefoot
How it was run: as §1

[31] = tested on: redroot pigweed; test: Test Example 4: weedkilling efficacy by foliar treatment; L: redroot pigweed
How it was run: as §1

[32] = tested on: green foxtail; test: Test Example 3: weedkilling efficacy through soil treatment; E: green foxtail
How it was run: as §3

[33] = tested on: wheat; test: Test Example 3: soil treatment, effect on crop; e: wheat
How it was run: as §3

[34] = tested on: directly sown rice; test: Test Example 3: soil treatment, effect on crop; b: directly sown rice
How it was run: as §3

[35] = tested on: barnyard grass; test: Test Example 1: weedkilling efficacy, preemergent weed treatment in the submerged state; A: barnyard grass
How it was run: as §2

[36] = tested on: beet; test: Test Example 3: soil treatment, effect on crop; f: beet
How it was run: as §3

[37] = tested on: rapeseed; test: Test Example 4: foliar treatment, effect on crop; g: rapeseed
How it was run: as §1

[38] = tested on: wheat; test: Test Example 4: foliar treatment, effect on crop; e: wheat
How it was run: as §1

[39] = tested on: soybean; test: Test Example 3: soil treatment, effect on crop; d: soybean
How it was run: as §3

[40] = tested on: Italian ryegrass; test: Test Example 4: weedkilling efficacy by foliar treatment; I: Italian ryegrass
How it was run: as §1

[41] = tested on: wild oat; test: Test Example 4: weedkilling efficacy by foliar treatment; G: wild oat
How it was run: as §1

[42] = tested on: oval-leafed pondweed; test: Test Example 2: weedkilling efficacy, growth period weed treatment in the submerged state; C: oval-leafed pondweed
How it was run: as §4

[43] = tested on: chickweed; test: Test Example 3: weedkilling efficacy through soil treatment; N: chickweed
How it was run: as §3

[44] = tested on: Indian mallow; test: Test Example 3: weedkilling efficacy through soil treatment; K: Indian mallow
How it was run: as §3

[45] = tested on: crabgrass; test: Test Example 4: weedkilling efficacy by foliar treatment; D: crabgrass
How it was run: as §1

CC1=C(c2ccccc2)C(=O)N(C(C)(C)C(=O)Nc2cc(C(F)F)ccn2)CO1 [B-2-54]
H (black-grass) weedkilling efficacy grade [1]: 5 (weed kill ratio 90% or more, (practically complete withering)) | C (oval-leafed pondweed) weedkilling efficacy grade [2]: 5 (weed kill ratio 90% or more, (practically complete withering)) | N (chickweed) weedkilling efficacy grade [3]: 4 (weed kill ratio 70% or more, less than 90%) | c (corn) effect on crop grade [4]: 2 (weed kill ratio 20% or more, less than 40%) | B (bulrush) weedkilling efficacy grade [5]: 5 (weed kill ratio 90% or more, (practically complete withering)) | f (beet) effect on crop grade [6]: 4 (weed kill ratio 70% or more, less than 90%) | F (barnyard grass) weedkilling efficacy grade [7]: 5 (weed kill ratio 90% or more, (practically complete withering)) | g (rapeseed) effect on crop grade [8]: 4 (weed kill ratio 70% or more, less than 90%) | F (barnyard grass) weedkilling efficacy grade [9]: 5 (weed kill ratio 90% or more, (practically complete withering)) | c (corn) effect on crop grade [10]: 3 (weed kill ratio 40% or more, less than 70%) | O (catchweed) weedkilling efficacy grade [11]: 4 (weed kill ratio 70% or more, less than 90%) | B (bulrush) weedkilling efficacy grade [12]: 5 (weed kill ratio 90% or more, (practically complete withering)) | a (transplanted rice) effect on crop grade [13]: 5 (weed kill ratio 90% or more, (practically complete withering)) | A (barnyard grass) weedkilling efficacy grade [14]: 5 (weed kill ratio 90% or more, (practically complete withering)) | I (Italian ryegrass) weedkilling efficacy grade [15]: 5 (weed kill ratio 90% or more, (practically complete withering)) | G (wild oat) weedkilling efficacy grade [16]: 5 (weed kill ratio 90% or more, (practically complete withering)) | P (birds-eye speedwell) weedkilling efficacy grade [17]: 5 (weed kill ratio 90% or more, (practically complete withering)) | D (crabgrass) weedkilling efficacy grade [18]: 5 (weed kill ratio 90% or more, (practically complete withering)) | d (soybean) effect on crop grade [19]: 4 (weed kill ratio 70% or more, less than 90%) | L (redroot pigweed) weedkilling efficacy grade [20]: 4 (weed kill ratio 70% or more, less than 90%) | J (common wind-grass) weedkilling efficacy grade [21]: 5 (weed kill ratio 90% or more, (practically complete withering)) | O (catchweed) weedkilling efficacy grade [22]: 4 (weed kill ratio 70% or more, less than 90%) | M (fig-leafed goosefoot) weedkilling efficacy grade [23]: 3 (weed kill ratio 40% or more, less than 70%) | P (birds-eye speedwell) weedkilling efficacy grade [24]: 4 (weed kill ratio 70% or more, less than 90%) | E (green foxtail) weedkilling efficacy grade [25]: 5 (weed kill ratio 90% or more, (practically complete withering)) | K (Indian mallow) weedkilling efficacy grade [26]: 4 (weed kill ratio 70% or more, less than 90%) | J (common wind-grass) weedkilling efficacy grade [27]: 5 (weed kill ratio 90% or more, (practically complete withering)) | b (directly sown rice) effect on crop grade [28]: 5 (weed kill ratio 90% or more, (practically complete withering)) | H (black-grass) weedkilling efficacy grade [29]: 5 (weed kill ratio 90% or more, (practically complete withering)) | M (fig-leafed goosefoot) weedkilling efficacy grade [30]: 4 (weed kill ratio 70% or more, less than 90%) | L (redroot pigweed) weedkilling efficacy grade [31]: 4 (weed kill ratio 70% or more, less than 90%) | E (green foxtail) weedkilling efficacy grade [32]: 5 (weed kill ratio 90% or more, (practically complete withering)) | e (wheat) effect on crop grade [33]: 0 (weed kill ratio 5% or less (practically no effect)) | b (directly sown rice) effect on crop grade [34]: 5 (weed kill ratio 90% or more, (practically complete withering)) | A (barnyard grass) weedkilling efficacy grade [35]: 5 (weed kill ratio 90% or more, (practically complete withering)) | f (beet) effect on crop grade [36]: 4 (weed kill ratio 70% or more, less than 90%) | g (rapeseed) effect on crop grade [37]: 4 (weed kill ratio 70% or more, less than 90%) | e (wheat) effect on crop grade [38]: 0 (weed kill ratio 5% or less (practically no effect)) | d (soybean) effect on crop grade [39]: 0 (weed kill ratio 5% or less (practically no effect)) | I (Italian ryegrass) weedkilling efficacy grade [40]: 5 (weed kill ratio 90% or more, (practically complete withering)) | G (wild oat) weedkilling efficacy grade [41]: 5 (weed kill ratio 90% or more, (practically complete withering)) | C (oval-leafed pondweed) weedkilling efficacy grade [42]: 5 (weed kill ratio 90% or more, (practically complete withering)) | N (chickweed) weedkilling efficacy grade [43]: 4 (weed kill ratio 70% or more, less than 90%) | K (Indian mallow) weedkilling efficacy grade [44]: 3 (weed kill ratio 40% or more, less than 70%) | D (crabgrass) weedkilling efficacy grade [45]: 5 (weed kill ratio 90% or more, (practically complete withering))
